Reference: publication PMC5729604, “Dual inhibitors of hepatitis C virus and hepatocellular carcinoma: design, synthesis and docking studies” (Future Science OA, 2017)
Entries after “also recorded” stand apart in the source; their conditions may differ.

Legend:
In vitro hemolytic assay = format: cell-based; conditions: 2% erythrocyte suspension (washed red blood cells); 2% erythrocyte suspension, 3 μl of 1 mg/ml compound in DMF per 240 μl well, 37°C 30 min, absorbance 405 nm; <5% considered nontoxic
Procedure: Compounds 5a-x and 6a-h were subjected to the in vitro hemolytic assay to identify those which cause hemolysis to red blood cells (RBCs). Consequently, these compounds would be toxic in vivo so they were excluded from further biological screening.
Blood samples (5 ml) were freshly collected into heparinized tubes and were centrifuged (1000 r.p.m. for 20 min) at room temperature. The plasma and buffy coat were removed by Pasteur pipette, and the collected erythrocytes were washed three-times using isotonic buffer solution (0.9% sodium chloride [Sigma-Aldrich, MO, USA]) by centrifugation (2500 r.p.m. for 10 min). A two percent erythrocyte suspension was prepared to be used in the assay.
A 1 mg/ml stock solution of each compound was prepared in DMF (Sigma-Aldrich). Compound wells were prepared by adding 3 μl of the compound solution to 117 μl isotonic buffer solution and 120 μl erythrocyte suspension. Compounds color blank wells were prepared by adding 3 μl compound to 237 μl isotonic buffer solution. Solvent (DMF) wells were prepared by adding 3 μl DMF to 117 μl isotonic buffer solution and 120 μl erythrocyte suspension. Positive control wells (representing 100% hemolysis) were prepared by adding 120 μl erythrocyte suspension to 120 μl distilled water, while negative control wells (representing 0% hemolysis) were prepared by adding 120 μl erythrocyte suspension to 120 μl isotonic buffer solution. Finally, blank wells contained only 240 μl isotonic buffer solution. Each set of samples was pipetted in triplicate. The microtiter plate was then shaken well on bench, incubated at 37°C for 30 min then centrifuged (2000 rpm for 5 min) at room temperature.
A fraction of the supernatant layer (150 μl) of each well was transferred to another 96-well microtiter plate. Erythrocyte hemolysis was determined by reading the absorbance (A) of liberated hemoglobin at 405 nm in the supernatant fraction compared with the 100% hemolysis of erythrocyte. The average value was calculated from triplicate assay: [drawing 2]

[1] = system: HepG2 cells infected with hepatitis C virus; test: In vitro anti-HCV screening, qualitative RT-PCR of viral RNA; format: cell-based, HCV genotype-4; conditions: for Result (anti-HCV screening): at the used dose (below LD0 on HepG2 and PBMCs), 72 h, Positive = disappearance of viral RNA-amplified product (174 bp)
Text: The safe compounds on RBCs (5a-g, 5i-l, 5p-r, 5v-w, 6b-g) were screened for their in vitro anti-HCV activity using the HCC HepG2 cell line infected with the HCV. Monitoring of the HCV viremia pre- and post-antiviral therapy through the detection of viral RNA using qualitative reverse transcription-PCR (RT-PCR) was adopted in the present investigation. This technique was reported to be the most frequently used, reliable and sensitive technique. Inhibition of viral replication was detected by amplification of viral RNA segments by the RT-PCR technique both in the cultivated infected cells alone (as a positive control) and at the specified dose for each test compound at optimal temperature. The test compound was considered to be active when it can inhibit the viral replication inside the HCV-infected HepG2 cells, as evidenced by the disappearance of the viral RNA-amplified products detected by the RT-PCR (compared with positive control).
The used concentration of each compound was chosen to be lower than the LD0 on HepG2 cells. Therefore, 100% viability of HepG2 cells was maintained, to make sure that any inhibitory effect was due to anti-HCV activity rather than cytotoxic activity on HepG2 cells. Moreover, the used concentrations were also chosen to be lower than the LD0 on PBMCs. Consequently, these doses could be used for inhibition of HCV in normal cells infected with the virus.
HepG2 cells were washed twice in RPMI-1640 medium supplemented with 200 μM L-glutamine and […] HEPES buffer. The cells were suspended at 12 × 10^4 cells/ml in RPMI culture medium (RPMI supplemented medium and 10% FBS). The appropriate number of cells to be used was chosen to be 12 × 10^3 cells/well (100 μl of the prepared suspension), and the cells were left to adhere on the polystyrene […] plates in an incubator at 37°C, 5% CO2 and 95% humidity for 24 h. The cells were washed once using RPMI supplemented medium, then infected with 2% HCV-infected serum (the used serum was a pole of ten patients infected with HCV genotype-4 with viral loads: 3.2–9 million IU/ml, G4 HCV RNA) in RPMI culture medium containing 8% FBS. The used dose of each compound was chosen so as to maintain 100% viability of the HepG2 cell line (the dose was lower than the LD0 of each compound on HepG2 cells as calculated from the in vitro anticancer screening). It was reported that, cultured HepG2 cells lost their biotransformation activity due to decrease in cytochrome (CYP) transcription. This waived its effect on the compounds stability during the test. Negative control is HepG2 cells with culture medium without addition of HCV infected serum or addition of tested compounds. Positive control is HepG2 cells with culture medium and infected HCV serum but without addition of tested compounds. After addition of the compounds, the plates were incubated at 37°C, 5% CO2 and 95% humidity for 72 h, followed by RNA extraction. The RNA strand was detected by RT-PCR using HCV-specific primers to the […] region of the virus.
RNA was extracted from HepG2 cells using the method described by El-Awady et al.. Culture cells were mixed with 200 μl of 4 mol/l guanidinium isothiocyanate (Fischer Bioreagents) containing 25 mmol/l sodium citrate (MP Biomedicals, CA, USA), 0.5% sarkosyl (Fischer Bioreagents), 0.1 mol/l β-mercaptoethanol (MP Biomedicals), and 100 μl sodium acetate (Merck). The lysed cells were mixed with an equal volume of phenol, chloroform and isoamyl alcohol (25:24:1, pH 4; Fischer Bioreagents). After vortexing, the mixture was centrifuged (14,000 r.p.m. for 10 min) at 4°C. The aqueous layer was collected and mixed with an equal volume of isopropanol (Acros Organics, Geel, Belgium). After incubation at -20°C overnight, RNA was precipitated by centrifugation (14,000 r.p.m. for 30 min) at 4°C, and the precipitated RNA was washed twice with 70% ethanol. […]

With `CC(=NN=C1SC(=Cc2cn(-c3ccccc3)nc2-c2ccc(Cl)cc2)C(=O)N1c1ccc(Cl)cc1)c1nc2ccccc2[nH]1` [Compound 5q, 2-[1-(1H-Benzimidazole-2-yl)ethylidenehydrazono]-5-{[3-(4-chlorophenyl)-1-phenyl-1H-pyrazol-4-yl]methylene}-3-(4-chlorophenyl)thiazolidin-4-one] the hemolysis at 30 min, 12.5 µg/ml (In vitro hemolytic assay) was 3.49% and the “Result (anti-HCV screening)” value [1] was “Negative”.
With `CC(=NN=C1SC(=C2C(=O)Nc3ccccc32)C(=O)N1c1ccccc1)c1nc2ccccc2[nH]1` [Compound 6e, 2-[1-(1H-Benzimidazole-2-yl)ethylidenehydrazono]-5-(2-oxoindolin-3-ylidene)-3-phenylthiazolidin-4-one] the hemolysis at 30 min, 12.5 µg/ml (In vitro hemolytic assay) was 4.51% and the “Result (anti-HCV screening)” value [1] was “Negative”.
With `CC(=NN=C1SC(=Cc2cn(-c3ccccc3)nc2-c2ccc(Cl)cc2)C(=O)N1c1ccccc1)c1cc2ccccc2o1` [Compound 5b, 2-[1-(Benzofuran-2-yl)ethylidenehydrazono]-5-{[3-(4-chlorophenyl)-1-phenyl-1H-pyrazol-4-yl]methylene}-3-phenylthiazolidin-4-one] the hemolysis at 30 min, 12.5 µg/ml (In vitro hemolytic assay) was 4.22% and the “Result (anti-HCV screening)” value [1] was “Negative”.
With `CC(=NN=C1SC(=Cc2cn(-c3ccccc3)nc2-c2ccccc2)C(=O)N1C1CCCCC1)c1cc2ccccc2o1` [Compound 5j, 2-[1-(Benzofuran-2-yl)ethylidenehydrazono]-5-[(1,3-Diphenyl-1H-pyrazol-4-yl)methylene]-3-cyclohexylthiazolidin-4-one] the hemolysis at 30 min, 12.5 µg/ml (In vitro hemolytic assay) was 3.01% and the “Result (anti-HCV screening)” value [1] was “Negative”.
For `COc1ccc(-c2nn(-c3ccccc3)cc2C=C2SC(=NN=C(C)c3nc4ccccc4[nH]3)N(c3ccc(Cl)cc3)C2=O)cc1` [Compound 5r, 2-[1-(1H-Benzimidazole-2-yl)ethylidenehydrazono]-5-{[3-(4-methoxyphenyl)-1-phenyl-1H-pyrazol-4-yl]methylene}-3-(4-chlorophenyl)thiazolidin-4-one], the hemolysis at 30 min, 12.5 µg/ml (In vitro hemolytic assay) was 1.87% and the “Result (anti-HCV screening)” value [1] was “Negative”.
In the case of `COc1ccc(-c2nn(-c3ccccc3)cc2C=C2SC(=NN=C(C)c3cc4ccccc4o3)N(c3ccc(Cl)cc3)C2=O)cc1` [Compound 5f, 2-[1-(Benzofuran-2-yl)ethylidenehydrazono]-5-{[3-(4-methoxyphenyl)-1-phenyl-1H-pyrazol-4-yl]methylene}-3-(4-chlorophenyl)thiazolidin-4-one], the hemolysis at 30 min, 12.5 µg/ml (In vitro hemolytic assay) is reported as 4.59% and the “Result (anti-HCV screening)” value [1] is reported as “Negative”.
With `CC(=NN=C1SC(=Cc2cn(-c3ccccc3)nc2-c2ccccc2)C(=O)N1c1ccccc1)c1cc2ccccc2o1` [Compound 5a, 2-[1-(Benzofuran-2-yl)ethylidenehydrazono]-5-[(1,3-Diphenyl-1H-pyrazol-4-yl)methylene]-3-phenylthiazolidin-4-one] the hemolysis at 30 min, 12.5 µg/ml (In vitro hemolytic assay) was 3.27%, the “in vitro anti-HCV activity, in words” value ([1]; HCV-infected HepG2 cells, RT-PCR) was “showed in vitro anti-HCV activity; also recorded: exhibited in vitro anti-HCV activity” and the “Result (anti-HCV screening)” value [1] was “Positive”.
In the case of `CC(=NN=C1SC(=C2C(=O)Nc3ccccc32)C(=O)N1C1CCCCC1)c1cc2ccccc2o1` [Compound 6d, 2-[1-(Benzofuran-2-yl)ethylidenehydrazono]-5-(2-oxoindolin-3-ylidene)-3-cyclohexylthiazolidin-4-one], the hemolysis at 30 min, 12.5 µg/ml (In vitro hemolytic assay) is reported as 1.31% and the “Result (anti-HCV screening)” value [1] is reported as “Negative”.
In the case of `COc1ccc(N2C(=O)C(=Cc3cn(-c4ccccc4)nc3-c3ccccc3)SC2=NN=C(C)c2cc3ccccc3o2)cc1` [Compound 5g, 2-[1-(Benzofuran-2-yl)ethylidenehydrazono]-5-[(1,3-Diphenyl-1H-pyrazol-4-yl)methylene]-3-(4-methoxyphenyl)thiazolidin-4-one], the hemolysis at 30 min, 12.5 µg/ml (In vitro hemolytic assay) is reported as 2.03% and the “Result (anti-HCV screening)” value [1] is reported as “Negative”.
In the case of `CC(=NN=C1SC(=Cc2cn(-c3ccccc3)nc2-c2ccc(Cl)cc2)C(=O)N1C1CCCCC1)c1cc2ccccc2o1` [Compound 5k, 2-[1-(Benzofuran-2-yl)ethylidenehydrazono]-5-{[3-(4-chlorophenyl)-1-phenyl-1H-pyrazol-4-yl]methylene}-3-cyclohexylthiazolidin-4-one], the hemolysis at 30 min, 12.5 µg/ml (In vitro hemolytic assay) is reported as 4.44% and the “Result (anti-HCV screening)” value [1] is reported as “Negative”.
With `COc1ccc(N2C(=O)C(=C3C(=O)Nc4ccccc43)SC2=NN=C(C)c2cc3ccccc3o2)cc1` [Compound 6c, 2-[1-(Benzofuran-2-yl)ethylidenehydrazono]-5-(2-oxoindolin-3-ylidene)-3-(4-methoxyphenyl)thiazolidin-4-one] the hemolysis at 30 min, 12.5 µg/ml (In vitro hemolytic assay) was 4.02% and the “Result (anti-HCV screening)” value [1] was “Negative”.
In the case of `COc1ccc(N2C(=O)C(=C3C(=O)Nc4ccccc43)SC2=NN=C(C)c2nc3ccccc3[nH]2)cc1` [Compound 6g, 2-[1-(1H-Benzimidazole-2-yl)ethylidenehydrazono]-5-(2-oxoindolin-3-ylidene)-3-(4-methoxyphenyl)thiazolidin-4-one], the hemolysis at 30 min, 12.5 µg/ml (In vitro hemolytic assay) is reported as 2.65% and the “Result (anti-HCV screening)” value [1] is reported as “Negative”.
With `COc1ccc(-c2nn(-c3ccccc3)cc2C=C2SC(=NN=C(C)c3cc4ccccc4o3)N(c3ccc(OC)cc3)C2=O)cc1` [Compound 5i, 2-[1-(Benzofuran-2-yl)ethylidenehydrazono]-5-{[3-(4-methoxyphenyl)-1-phenyl-1H-pyrazol-4-yl]methylene}-3-(4-methoxyphenyl)thiazolidin-4-one] the hemolysis at 30 min, 12.5 µg/ml (In vitro hemolytic assay) was 2.97% and the “Result (anti-HCV screening)” value [1] was “Negative”.
For `CC(=NN=C1SC(=Cc2cn(-c3ccccc3)nc2-c2ccc(Cl)cc2)C(=O)N1c1ccc(Cl)cc1)c1cc2ccccc2o1` [Compound 5e, 2-[1-(Benzofuran-2-yl)ethylidenehydrazono]-5-{[3-(4-chlorophenyl)-1-phenyl-1H-pyrazol-4-yl]methylene}-3-(4-chlorophenyl)thiazolidin-4-one], the hemolysis at 30 min, 12.5 µg/ml (In vitro hemolytic assay) was 3.82% and the “Result (anti-HCV screening)” value [1] was “Negative”.
For `COc1ccc(-c2nn(-c3ccccc3)cc2C=C2SC(=NN=C(C)c3cc4ccccc4o3)N(c3ccccc3)C2=O)cc1` [Compound 5c, 2-[1-(Benzofuran-2-yl)ethylidenehydrazono]-5-{[3-(4-methoxyphenyl)-1-phenyl-1H-pyrazol-4-yl]methylene}-3-phenylthiazolidin-4-one], the hemolysis at 30 min, 12.5 µg/ml (In vitro hemolytic assay) was 1.65% and the “Result (anti-HCV screening)” value [1] was “Negative”.
